Experimental data: PubChem BioAssay (NCI)
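Following 48 hours of exposure in 96-well plates, responses at five concentrations were used to interpolate endpoints linearly. GI50 = concentration required for 50% inhibition of growth. TGI marks complete inhibition of growth.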

How the values were obtained:
Test in all cases: DTP human tumour cell line panel, 48 h
[1] = system: COLO 205 colon
[2] = system: T-47D breast
[3] = system: HS 578T breast
[4] = system: HOP-92 NSCLC
[5] = system: 786-0 renal
[6] = system: A498 renal
[7] = system: RPMI-8226 leukemia
[8] = system: KM12 colon
[9] = system: SNB-19 CNS
[10] = system: MDA-MB-435
[11] = system: NCI-H23 lung
[12] = system: U251 CNS
[13] = system: HCC-2998 colon
[14] = system: MOLT-4 leukemia
[15] = system: SK-MEL-5 melanoma
[16] = system: NCI-H460 lung
[17] = system: SF-539 CNS
[18] = system: NCI-H226 lung
[19] = system: BT-549 breast
[20] = system: OVCAR-5 ovarian
[21] = system: SN12C renal
[22] = system: OVCAR-3 ovarian
[23] = system: CCRF-CEM leukemia
[24] = system: CAKI-1 renal
[25] = system: MCF7 breast
[26] = system: RXF 393 renal
[27] = system: IGROV1 ovarian
[28] = system: EKVX NSCLC
[29] = system: OVCAR-4 ovarian
[30] = system: SF-268 CNS
[31] = system: OVCAR-8 ovarian
[32] = system: SF-295 CNS
[33] = system: NCI/ADR-RES ovarian
[34] = system: K-562 leukemia
[35] = system: UACC-62 melanoma
[36] = system: MALME-3M melanoma
[37] = system: ACHN renal
[38] = system: UACC-257 melanoma
[39] = system: PC-3 prostate
[40] = system: M14 melanoma
[41] = system: UO-31 renal
[42] = system: DU-145 prostate
[43] = system: MDA-MB-231 breast
[44] = system: SW-620 colon
[45] = system: HOP-62 NSCLC
[46] = system: HCT-15 colon
[47] = system: HT29 colon
[48] = system: SNB-75 CNS
[49] = system: HCT-116 colon
[50] = system: LOX IMVI melanoma
[51] = system: SK-MEL-28 melanoma
[52] = system: SR leukemia
[53] = system: SK-OV-3 ovarian

Nc1nc(SCc2ccccc2CCl)c2[nH]cnc2n1
GI50 [1]: 16.2 µM | TGI [1]: 36.1 µM | GI50 [2]: 15.6 µM | TGI [2]: 52.3 µM | GI50 [3]: 18.3 µM | TGI [3]: 97.2 µM | GI50 [4]: 20 µM | TGI [4]: 67.8 µM | GI50 [5]: 17.6 µM | TGI [5]: 40.3 µM | GI50 [6]: 11.7 µM | TGI [6]: 25.8 µM | GI50 [7]: 31.9 µM | TGI [7]: > 100 µM | GI50 [8]: 14.8 µM | TGI [8]: 28.1 µM | GI50 [9]: 15.8 µM | TGI [9]: 35.5 µM | GI50 [10]: 12.8 µM | TGI [10]: 25.7 µM | GI50 [11]: 15.7 µM | TGI [11]: 36.5 µM | GI50 [12]: 13.1 µM | TGI [12]: 27.3 µM | GI50 [13]: 18.8 µM | TGI [13]: 33.3 µM | GI50 [14]: 21.4 µM | TGI [14]: > 100 µM | GI50 [15]: 10.8 µM | TGI [15]: 23.7 µM | GI50 [16]: 15.2 µM | TGI [16]: 30.9 µM | GI50 [17]: 21.9 µM | TGI [17]: 54 µM | GI50 [18]: 17.1 µM | TGI [18]: 34.4 µM | GI50 [19]: 13.7 µM | TGI [19]: 29.6 µM | GI50 [20]: 18.9 µM | TGI [20]: 34.6 µM | GI50 [21]: 21.2 µM | TGI [21]: 71.7 µM | GI50 [22]: 14.6 µM | TGI [22]: 28.9 µM | GI50 [23]: 28.5 µM | TGI [23]: > 100 µM | GI50 [24]: 15.6 µM | TGI [24]: 44 µM | GI50 [25]: 12.2 µM | TGI [25]: 28.4 µM | GI50 [26]: 14 µM | TGI [26]: 28.7 µM | GI50 [27]: 14.5 µM | TGI [27]: 47.9 µM | GI50 [28]: 12.9 µM | TGI [28]: 25.9 µM | GI50 [29]: 13.2 µM | TGI [29]: 37.3 µM | GI50 [30]: 12.6 µM | TGI [30]: 25.6 µM | GI50 [31]: 28.2 µM | TGI [31]: > 100 µM | GI50 [32]: 18.7 µM | TGI [32]: 56 µM | GI50 [33]: 20.9 µM | TGI [33]: 67.7 µM | GI50 [34]: 32.4 µM | TGI [34]: > 100 µM | GI50 [35]: 14.3 µM | TGI [35]: 30.1 µM | GI50 [36]: 12.5 µM | TGI [36]: 28.8 µM | GI50 [37]: 18.6 µM | TGI [37]: 74.6 µM | GI50 [38]: 14.5 µM | TGI [38]: 32.9 µM | GI50 [39]: 25.1 µM | TGI [39]: > 100 µM | GI50 [40]: 17.8 µM | TGI [40]: 52.8 µM | GI50 [41]: 10.5 µM | TGI [41]: 71.9 µM | GI50 [42]: 16.3 µM | TGI [42]: 41.7 µM | GI50 [43]: 14.2 µM | TGI [43]: 38 µM | GI50 [44]: 14.8 µM | TGI [44]: 29.2 µM | GI50 [45]: 17 µM | TGI [45]: 33.2 µM | GI50 [46]: 14.5 µM | TGI [46]: 31.1 µM | GI50 [47]: 17.1 µM | TGI [47]: 35.6 µM | GI50 [48]: 15.3 µM | TGI [48]: 32.7 µM | GI50 [49]: 16.2 µM | TGI [49]: 33.8 µM | GI50 [50]: 12.7 µM | TGI [50]: 26.9 µM | GI50 [51]: 17.7 µM | TGI [51]: 49.7 µM | GI50 [52]: 24.8 µM | TGI [52]: > 100 µM | GI50 [53]: 16 µM | TGI [53]: 32.2 µM
